Legend:
[1] = system: ER-positive breast cancer; settings: cited from earlier work
VEGF = settings: with chemotherapy; patients with colorectal, breast, and lung cancers; cited from earlier work
MDA MB 468 cells = test: COPIA per-cell RTK activation in growth factor stimulated MDA-MB-468 cells; format: cell-based, human; settings: MDA MB 468 cells stimulated with EGF
Experimental: (§1) SKBr3, MDA-MB-468, T47D and BT474 cell lines were obtained from ATCC. Cells were grown in the following growth media in 100 mm tissue culture plates at 37° C. in 5% CO2: SKBr3 McCoy's 5A medium with 10% FBS, MDA-MB-468: DMEM, 10% FBS, BT474: DMEM, 10B FBS, T47D: RPMI 1640, 10% FBS, 0.2 U/ml bovine insulin. Cells were harvested at 70-80% confluency with gentle detachment process (trypsin treatment+subsequent inactivation) and were subsequently counted and washed with 1×PBS. Cell stimulation was performed with 100 uM EGF or 20 uM heregulin β or both in serum-free growth media for 5 min. Stimulated cells were washed with 1×PBS and then were lysed (lysis buffer: 50 mM Tris, pH 7.4, 150 mM NaCl, 1% Trition X-100 and 200 mM Na3VO4) and kept on ice for 30 min.
(§2) Slides were first rinsed two times with TBST (50 mM Tris/150 mM NaCl/0.1% Tween-20, pH 7.2-7.4) before blocking them with 80 ul of Whatman Blocking Buffer 1 hr at RT or O/N at 4 C. After the blocking process, slides were washed 2 times with TBST. […]

T47D cells = test: COPIA RTK activation in growth factor stimulated T47D cells; format: cell-based, human; settings: T47D cells stimulated with EGF or HRG
Experimental: as §1, §2

VEGF, sequence (P15692 207-311 limits assumed): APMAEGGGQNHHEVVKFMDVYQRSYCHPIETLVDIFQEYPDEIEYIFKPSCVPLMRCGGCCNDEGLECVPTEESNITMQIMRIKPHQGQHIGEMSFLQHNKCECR

Question: Which “reduction in the odds of recurrence and mortality” value ([1]; adjuvant therapy studies) does the source give for CC/C(=C(\c1ccccc1)c1ccc(OCCN(C)C)cc1)c1ccccc1 [Tamoxifen] here?
Answer: 40% to 50%

Question: And the “patients with temporary remission” value ([1]; patients with metastatic disease)?
Answer: 30% to 50%

Question: For Bevacizumab, which survival (VEGF) is on record?
Answer: improve survival

Question: Which results are given for “EGF: epidermal growth factor, stimulatory growth factor used to induce HER1 phosphorylation (NSDSECPLSHDGYCLHDGVCMYIEALDKYACNCVVGYIGERCQYRDLKWWELR; Epidermal growth factor; UniProt P01133 971-1023, looked up)”?
Answer: level of pHER1 per cell (MDA MB 468 cells): 992.5 RFU/cell; HER1 activation (T47D cells): resulted in both HER1 and HER2 activation; HER2 activation (T47D cells): resulted in both HER1 and HER2 activation

Reference: patent US9726669B2, “Biomarkers for determining sensitivity of breast cancer cells to HER2-targeted therapy” (PIERIAN HOLDINGS, INC., priority 2009, dated 2017)
